# Results: patent US20160058829A1, “ANTI-FIBROTIC PEPTIDES AND THEIR USE IN METHODS FOR TREATING DISEASES AND DISORDERS CHARACTERIZED BY FIBROSIS” (Thrasos Innovation, Inc., priority 2011, published 2016)
# Positions of bridges follow the written chain, without caps; N, C: chain ends.
# What was measured:
# [1] = test system: human proximal tubule epithelial cells (HK2); assay: Cisplatin-induced apoptosis in HK-2 cells (Annexin V); assay type: cell-based; settings: THR-123 250 μM, cisplatin 10 μM
# Method: FIG. 50A-FIG. 50D THR-123 inhibits Cisplatin-induced apoptosis in human proximal tubule epithelial cells (HK2). Immortalized human proximal tubular epithelial-derived HK-2 (Human Kidney-2) cells are passaged on 24-well plates (˜25,000 to 30,000 cells/well). The cells are exposed either K-SFM media alone or K-SFM medium containing THR-123. BMP7 serves as a positive control of experiment. Two hours after incubation, cells are exposed to cisplatin for 60 hours (FIG. 50A-FIG. 50C). FIG. 50D. Cells are exposed to cisplatin for 6 hours and subsequently THR-123 was added into the media. Apoptosis is determined by staining of AnnexinV-FITC Apoptosis detection kit (TACS Annexin V-FITC) (R&D Systems), followed by fluorescence microscopy. Final concentration: THR-123 250 μM, BMP-7 1 μg/ml, cisplatin 10 μm.
# HK-2 cells are passaged on 24-well plates (25,000-30,000 cell/well). Once cells attached on the well, cells are exposed either K-SFM media alone or K-SFM medium containing THR-123. BMP7 serves as a positive control of experiment. Two hours after incubation, cells are exposed to cisplatin for 60 hours. Apoptosis is determined by staining of AnnexinV-FITC, followed by fluorescence microscopy. Final concentration: THR-123 250 μM, BMP7 1 μg/ml, cisplatin 10 μM.
# [2] = In vitro stability in rat blood, plasma and PBS-mannitol buffer (LC-MS-MS); assay type: in vitro ADME; settings: 0.1 mg/mL, 37° C.
# Method: FIG. 46 In vitro stability of THR-123. THR-123 was spiked into freshly harvested rat blood (male Sprague-Dawley, 0.35 kg BW) and plasma, and PBS-mannitol buffer solution at a final concentration of 0.1 mg/mL. Blood, plasma and buffer master tubes were incubated at 37° C. for up to 6 h and duplicate samples of 500 μl (blood) and 250 μl (plasma and […]) were collected for analysis at 0, 7.5, 15, 30, 60, 120, 240 and 360 min. Samples were analyzed for THR-123 using an LC-MS-MS method having a limit of detection of 1 μg/ml.
# The stability of THR-123 in whole blood and plasma was tested in vitro. In PBS-mannitol buffer, THR-123 was stable for over 400 minutes (FIG. 46).
# [3] = test system: cisplatin-induced nephrotoxicity in rats; assay: Cisplatin-induced nephrotoxicity in rats; assay type: in vivo; settings: cisplatin plus THR-123 versus cisplatin alone
# From the text: FIG. 38 Tumor necrosis factor-a (TNF-a) production via p38 mitogen-activated protein kinase (MAPK) is one of the pivotal mechanisms in the development of AKI induced by a nephrotoxic agent, cisplatin (Ramesh, G and Reeves, W B. Am J Physiol Renal Physiol 289:F166-F174, 2005). Therefore THR-123 was further examined to determine if the compound is capable of inhibiting cisplatin-induced nephrotoxicity in animals. The upper right and left panels in the figure show Kidney sections immunostained for ICAM-1 expression and the lower right and left panels show immunostaining for the presence of macrophages. The kidney sections in the left column were treated with cisplatin alone and the right column panels were treated with cisplatin and THR-123. Arrows in the upper panel indicate ICAM-1 expression which was reduced by THR-123. Arrows in the lower panel indicate infiltration of macrophages as detected by Mac CD-68 staining, which was reduced by THR-123.
# [4] = test system: BALB/c mice with bleomycin-induced lung fibrosis; assay: Bleomycin (plus cyclophosphamide)-induced pulmonary fibrosis in BALB/c mice
# Method: The endpoints in this model are survival and histomorphometric evaluation of the extent of fibrosis in lung tissue.
# The test compound, in lyophilized form, is dissolved in 50 mM acetate buffer, pH 4.5 at an initial concentration of 20 mg/mL. The stock solution is then divided into several one mL aliquots, snap frozen and stored at −70° C. until used. On the Day of use, each aliquot is thawed and further diluted to a required working concentration in PBS, pH 7.5. The working concentration is determined from the intended dose (mg/kg body weight) and the oral administration volume.
# In addition, the mice are administered a single intraperitoneal injection of cyclophosphamide (150 mg/kg of body weight). The animals challenged with Bleomycin plus Cyclophosphamide are separated into two groups, each group having a minimum of 6 animals. The vehicle treated group (Group 1) receives daily oral doses of PBS, pH 7.5. […] These treatments are continued for up to 16 days after Bleomycin administration. A third control group of mice receive intra-tracheal PBS rather than Bleomycine and Cyclophosphamide.
# After completion of the in-life study, the animals are euthanized (methoxyflurane anesthesia), and the lungs are perfused with ice cold Hank's balanced salt solution to remove blood-born cells, and then inflated under a constant pressure of 30 cm H2O with 10% normal buffered formalin (NBF). Lungs are ligated at the trachea, removed en bloc, and immersed in NBF for 24 hr. After which, tissue samples are changed to 70% alcohol before paraffin embedding, followed by sectioning and staining with hematoxylin, eosin and Masson's Trichrome. Sections are analyzed microscopically to evaluate pulmonary fibrosis by determining the degree of collagen accumulation (Masson's Trichrome).
# Pulmonary fibrosis was evaluated histomorphometricly by determining the percentage of field with collagen accumulation lung sections stained with Masson's Trichrome.
# COL4A3−/− mice = assay: COL4A3 deficient mice (Alport syndrome model); assay type: in vivo
# From the text: FIG. 64a-FIG. 64N […] inhibits Renal Fibrosis in the COL4A3 Deficient mice. FIG. 64A-FIG. 64C. Representative histological PAS staining of glomeruli from 16 weeks old wild type (FIG. 64A); 16 weeks old COL4A3−/− (FIG. 64B), and 16 weeks old COL4A3−/− mice treated with THR-123 (FIG. 64C), original magnification ×400. D-F. Representative histological Masson's trichrome staining of kidneys from 16 weeks old wild type (FIG. 64D); 16 weeks old COL4A3−/− (FIG. 64E), and 16 weeks old COL4A3−/− mice treated with THR-123 (FIG. 64F), original magnification ×100. FIG. 64G-FIG. 64I. Morphometric analyses from 16 weeks old wild type (n=5), COL4A3−/− (n=5) and COL4A3−/− mice treated with THR-123 (n=5) assessing percent normal glomeruli (FIG. 64G), tubular damage index (FIG. 64H), relative interstitial volume (FIG. 64I). FIG. 64J. Blood urea nitrogen measurement for […] wild type (n=5), 16 weeks old COL4A3−/− (n=5) and COL4A3−/− mice treated with THR-123 (n=5). FIG. 64K-FIG. 64M. FSP1/E-cadherin immunolabeling of kidney. Representative results are shown. FIG. 64N. Percent of E-cadherin/FSP1double positive tubule, 500 tubules per slide, 5 slides per experimental group.
# Eight weeks old COL4A3^−/− mice are treated either THR-123 (p.o. 5 mg/Kg/day) or vehicle. COL4A3^−/− mice are sacrificed at 16 weeks of age.
# For morphometric analyses of percent normal glomeruli, 100 glomeruli were counted per slide from random fields of view, and five slides were counted per experimental group. The number of normal glomeruli was expressed as a percentage of the total number of glomeruli counted.
substance,measurement,setting,value
(H)-CYFDDSSNVLCKKYRS-(OH) (H-CYFDDSSNVLCKKYRS-OH; disulfide 1-11; SMILES CC(C)C[C@@H]1NC(=O)[C@H](C(C)C)NC(=O)[C@H](CC(N)=O)NC(=O)[C@H](CO)NC(=O)[C@H](CO)NC(=O)[C@H](CC(=O)O)NC(=O)[C@H](CC(=O)O)NC(=O)[C@H](Cc2ccccc2)NC(=O)[C@H](Cc2ccc(O)cc2)NC(=O)[C@@H](N)CSSC[C@@H](C(=O)N[C@@H](CCCCN)C(=O)N[C@@H](CCCCN)C(=O)N[C@@H](Cc2ccc(O)cc2)C(=O)N[C@@H](CCCNC(=N)N)C(=O)N[C@@H](CO)C(=O)O)NC1=O) [SEQ ID NO: 1],cisplatin induced apoptosis,[1],inhibited
same,half-life in rat plasma,[2],5.97 h
same,half-life in rat whole blood,[2],1.17 h
same,ICAM-1 expression in kidney sections,[3],reduced
same,infiltration of macrophages (Mac CD-68 staining),[3],reduced
same,pulmonary fibrosis (histomorphometric analysis of lung tissue),[4]; daily oral dose of 5 mg/kg,significantly less pulmonary fibrosis
same,survival rate at 16 days,"[4]; daily oral dose of 5 mg/kg, vehicle 100% mortality by 8 days",80%
same,"lung fibrosis score (percentage of field with collagen accumulation, Masson's Trichrome)","[4]; day 16, oral, vehicle 31% at ten days",16%
same,survival by day 16,[4]; oral,survival of all mice
same,blood urea nitrogen level,COL4A3−/− mice; THR-123 p.o. 5 mg/Kg/day,significantly improved blood urea nitrogen level
same,tubular atrophy and interstitial fibrosis,COL4A3−/− mice; THR-123 p.o. 5 mg/Kg/day,significantly inhibited tubular atrophy and interstitial fibrosis
same,glomerular abnormalities,"COL4A3−/− mice; THR-123 p.o. 5 mg/Kg/day, 8 to 16 weeks of age",did not alter glomerular abnormalities
same,acquisition of an EMT program,"COL4A3−/− mice; mouse, in vivo",inhibited such acquisition of an EMT program
same,macrophage infiltration,"COL4A3−/− mice; mouse, in vivo",inhibited macrophage infiltration
same,phospho-smad1/5 accumulation,"COL4A3−/− mice; mouse, in vivo",increased accumulation of phospho-smad1/5
